# Test results published in patent US9498507B2, “Antiviral composition” (Piramal Enterprises Limited, priority 2011, dated 2016).
# Key:
# HSV-1 [1] = test: Mouse HSV-1 zosteriform spread infection model; format: in vivo, Balb/c female mice; settings: acyclovir 225 mg/kg/day topical
# From the text: The assay was done as reported in Antimicrobial Agents and Chemotherapy, June 2002, p. 1766-1772, incorporated herein by reference for its procedure.
# Balb/c female mice of 6 to 8 weeks which are non-pregnant and nulliparous were used for the study. All the animals were shaved on right mid dorsal area using electric hair clipper and few horizontal scarification was done on shaved area using sterile 26 gauge needle, just before viral challenge.
# Prior to viral challenge, the scarified area of each mouse was cleaned with a cotton swab soaked in 70% alcohol followed by clearing the area using cotton swab soaked in sterile DMEM. Mice were then infected onto the scarified area with HSV-1 virus containing 8.27×10^3 pfu/animal. […]
# The following formulations, as described in Example 6, were evaluated: • (a) Formulation IA • (b) Formulation IB • (c) Formulation IC
# Formulation IA, Formulation IB and Formulation IC were applied topically thrice daily for a 5 day period. 15 mg of Formulation IA correspond to 225 mg/kg dose; 15 mg of Formulation IB correspond to 450 mg/kg dose; 15 mg of Formulation IC correspond to 675 mg/kg dose and 25 mg of Formulation IB correspond to 750 mg/kg dose evaluated in the animals.
# The animals were assessed daily for morbidity, mortality and the site of infection for a period of 21 days post infection. […]
# HSV-2 [2] = test: Virus penetration assay; format: cell-based; settings: compared to sample 23 of Example 4
# Description: (§1) Penetration of HSV into host cells may be defined as a step subsequent to initial binding to the host cell surface which triggers fusion of the virion envelope with the plasma membrane. This requires multiple interactions, in a cascade like manner, involving various glycoproteins (gB, gD and gH/gL) and cell surface components (Cell. Mol. Life Sci, 2008, 65, 1653-1668). […] Vero cells were seeded onto 24 well plates at a density of 1.8×10^5 cells/well. […] The cells were incubated at 4° C. for 2 hours to allow viral attachment. […] The plates were then washed with 0.85% saline and stained with 0.13% crystal violet.
# HSV-1 [3] = test: Virus penetration assay; format: cell-based; settings: compared to sample 23 of Example 4
# Description: as §1
# HSV-2 [4] = test: Virucidal activity assay; format: cell-based; settings: 25-400 μg/mL
# From the text: (§2) In the virucidal assay, the continuous presence of an antiviral drug may be frequently required for blocking infectivity of viral particle for cultured cells and dilution of the virus-extract complexes may dissociate, releasing infectious virus (Antiviral research, 2010, 86, 196-203). If a sample is unable to reduce virus infectivity at the IC50 or other potent concentrations then the antiviral activity is not related to its virucidal ability. […] HSV-1 virus suspension at a concentration of approximately 10^10 pfu/mL and HSV-2 at 10^9 pfu/ml were prepared. […] These admixtures were then diluted […] (1:100) to yield a final concentration range of 0.25-4 μg/ml corresponding to 25-400 μg/ml.
# HSV-1 [5] = test: Virucidal activity assay; format: cell-based; settings: 25-400 μg/mL
# From the text: as §2
# HSV-2 [6] = test: Effect on replication at different time points post-infection (MTT); format: cell-based
# Description: (§3) These stages occur at different time points in the virus life cycle spanning from 1 hour—initiation of adsorption to 24 hours—completion of one HSV replication cycle. Adsorption stage of the virus life cycle is the initial attachment of the herpes virus to host cells which involves interaction of gC and gD (conserved glycoproteins) on the virus with cell surface receptors such as heparin sulfate. Attachment stage of the virus life cycle is the stable attachment which allows close association of virus with the cell. The stage of the virus life cycle subsequent to the adsorption and attachment stages is known as the post infection stage. Vero cells were seeded onto 96-well flat-bottomed plates at a density of 2.2×10^4 cells/well in 10% FBS-DMEM growth medium. After 20-24 hours, the confluent monolayers were infected with 100 μL/well of 1:10^4 virus dilution (HSV-1 clinical strain) (TCID50 5.88×10^6/mL) or 1:10^3 dilution of HSV-2 (TCID50 2.43×10^6/mL) and plates incubated for 1 hour at 37° C. and 5% CO2. […] Maintenance medium was added to the wells for virus control (virus dilution+maintenance medium) and cell control (maintenance medium only). The plates were further incubated for 48-50 hours at 37° C. […] The plate was left in the 37° C., 5% CO2 incubator overnight. After incubation, the plate cover was removed and absorbance measured in each well at 570 nm in the microplate plate reader (BIO-TEK, Synergy HT).
# HSV-1 [7] = test: as above; format: cell-based
# Description: as §3
# HSV-2 [8] = test: Mouse vaginal model of HSV-2 infection; format: in vivo, Balb/c female mice; settings: acyclovir 225 mg/kg/day intravaginal
# Description: The assay was done as reported in Antiviral Research, 2006, 69:77-85, incorporated herein by reference for its procedure.
# Balb/c female mice of 6 to 8 weeks, non-pregnant and nulliparous were used for the study. Female BALB/c mice were used for vaginal inoculation with HSV-2. Five days prior to intravaginal (IVAG) challenge, mice were injected subcutaneously (sc) with 2 mg of progesterone (Depo-Provera®; Pfizer, Belgium) in the upper back, using a 29-gauge needle. On the day of challenge, mice were inoculated intravaginally with 1.14×10^5 pfu of HSV-2. IVAG administrations of virus were via a micropipette in a total volume of 20 μL DMEM. Animals received Formulation IA, Formulation IB, Formulation IC/acyclovir/placebo intravaginally by topical administration 30 minutes post infection. […]
# The following formulations, as described in Example 6, have been evaluated: • (a) Formulation IA • (b) Formulation IB • (c) Formulation IC
# Formulation IA, Formulation IB and Formulation IC were applied topically thrice daily for a 5 day period. 15 mg of Formulation IA correspond to 225 mg/kg dose; 15 mg of Formulation IB correspond to 450 mg/kg dose and 15 mg of Formulation IC correspond to 675 mg/kg dose evaluated in the animals.
# The animals were assessed daily for extravaginal disease signs and survival for a period of 21 days post infection. […]
# HSV-2 [9] = test: Primary antiviral screening, CPE inhibition assay (crystal violet staining method); format: cell-based; settings: Human alphaherpesvirus 2
# Description: (§4) The assay was done as reported in Indian J. Med. Res., 2004, 120:24-29 incorporated herein by reference for its procedure.
# (§5) Vero cells (obtained in step 1 of Example 8) were propagated at a density of 1×10^4 cells/well in 96 well plate and incubated at 37° C. in a CO2 incubator for 24 hours to form a monolayer. Samples 1 to 26 were tested by adding at 50 μg/mL and 100 μg/mL concentration (DMSO stock of 20 mg/mL of the extract was diluted to 50 μg/mL and 100 μg/mL with DMEM containing 2% FBS) in a final culture volume of 200 μL/well. Appropriate controls were included such as Vero cells alone (cell control), Vero cells with virus (virus control) and Vero cells with virus and the standard compound, acyclovir (a commercially available antiviral drug). Acyclovir was tested at the following concentrations (DMSO stock of 20 mg/mL of acyclovir was diluted to 100 μg/mL with DMEM containing 2% FBS): 12.5 μg/mL, 6.25 μg/mL, 3.125 μg/mL, 1.5 μg/mL and 0.78 μg/mL against HSV-1 and 25 μg/mL, 12.5 μg/mL, 6.25 μg/mL and 3.125 μg/mL against HSV-2. The extracts to be assayed were added 1 hour prior to infection to provide maximum sensitivity and give a tentative idea of potential inhibitors of early replicative steps such as adsorption or penetration. After one hour, cells were infected with 100 μL of appropriate viral dose per well [HSV-1 at a multiplicity of infection (MOI) of 10^4 TCID50 or HSV-2 at a MOI of 10^3 TCID50] using viral stock obtained in step 2 of Example 8. The infected cells were incubated with maintenance medium (DMEM with 2% FBS) for another 48 to 50 hours. […] The staining solution was aspirated out and the plates rinsed using distilled water until all excess stain was washed away. The plates were allowed to dry for 24 hours. CPE was evaluated visually, after staining the plaques, and microscopically and graded according to the percentage of CPE inhibition as compared to controls.
# HSV-1 [10] = test: as above; format: cell-based; settings: Human alphaherpesvirus 1
# Description: as §4, §5
# HSV-2 [11] = test: Antiviral activity prior to infection (pre-treatment plaque assay); format: cell-based; settings: 3.125-400 μg/mL
# Description: (§6) In order for herpes viruses to enter a target cell, they must fuse their lipid membrane envelope with the lipid membrane of the cell. This complex viral entry mechanism is mediated by at least three conserved glycoprotein's (gC, gB and gD) and their ability to bind cell surface receptors such as nectins and herpes virus entry mediator (HVEM) (Cell. Mol. Life Sci, 2008, 65, 1653-1668). […] Vero cells were seeded onto 24 well plates at a density of 1.8×10^5 cells/well. […] Following incubation, the plates were washed with 0.85% saline and stained with 0.13% crystal violet.
# HSV-1 [12] = test: as above; format: cell-based; settings: 3.125-400 μg/mL
# Description: as §6
smiles,measurement,setting,value
Nc1nc2c(ncn2COCCO)c(=O)[nH]1 [Acyclovir],mortality,HSV-1 [1],None of the mice died
same,recovery of all mice from zosteriform lesions,HSV-1 [1],"≤ 7 day, post infection"
same,inhibitory activity (penetration),HSV-2 [2],weak to moderate inhibitory activity
same,inhibitory activity (penetration),HSV-1 [3],weak to moderate inhibitory activity
same,virucidal effect against HSV-2,HSV-2 [4],11-38%
same,virucidal effect against HSV-1,HSV-1 [5],0-32%
same,antiviral effect,"HSV-2 [6]; 3.125-200 μg/mL, 0-7 hours",potent antiviral effect
same,antiviral effect,HSV-2 [6]; 16-24 hours p.i.,absent
same,antiviral effect,"HSV-1 [7]; 3.125-200 μg/mL, 0-7 hours",potent antiviral effect
same,antiviral effect,HSV-1 [7]; 16-24 hours,about 17%
same,mortality,HSV-2 [8],None of the mice died
same,signs of extravaginal disease,HSV-2 [8],None of the mice showed signs of extravaginal disease
same,inhibition at 3.125 µg/mL,HSV-2 [9]; 3.125 μg/mL,11 to 25%
same,inhibition at 6.25 µg/mL,HSV-2 [9]; 6.25 μg/mL,26 to 50%
same,inhibition at 12.5 µg/mL,HSV-2 [9]; 12.5 μg/mL,51 to 75%
same,inhibition at 25 µg/mL,HSV-2 [9]; 25 μg/mL,76 to 100%
same,inhibition at 0.78 µg/mL,HSV-1 [10]; 0.78 μg/mL,11 to 25%
same,inhibition at 1.5 µg/mL,HSV-1 [10]; 1.5 μg/mL,26 to 50%
same,inhibition at 3.125 µg/mL,HSV-1 [10]; 3.125 μg/mL,51 to 75%
same,inhibition at 6.25 µg/mL,HSV-1 [10]; 6.25 μg/mL,51 to 75%
same,inhibition at 12.5 µg/mL,HSV-1 [10]; 12.5 μg/mL,76 to 100%
same,inhibitory effect against HSV-2 prior to infection,HSV-2 [11],10-20%
same,inhibitory effect against HSV-1 prior to infection,HSV-1 [12],10-40%
